Source: patent publication US20250276996A1, “CATIONICALLY-ENFRAMED HIGH DENSITY AROMATIC PEPTIDES” (Research Foundation of the City University of New York, priority 2022, published 2025)
“Also recorded” adds a separate entry of the source. Non-standard residues stand in square brackets, D forms with d. Residues, ends and D or L forms follow the SMILES beside them. *: point of attachment. Biotin = O=C1N[C@H]2[C@H](CS[C@H]2CCCCC(=O)*)N1

Experiments:
[1] = tested on: MDBK cells; assay: NAO binding to mitochondria in MDBK cells; format: cell-based, bovine; conditions: NAO 1 μM, biotin-HDAP2 10 μM
[2] = tested on: retina; assay: Biotin-HDAP2 uptake and distribution in retina; format: in vivo, mice
Procedure: Biotin-HDAP2 (40 mg/kg) was administered intraperitoneally to mice (male or female) and 60 minutes later retina was collected, fixed and sectioned. […] (FIG. 7A and FIG. 7B).
Biotin-HDAP2 uptake in retina: Adult animals were injected with 50 mg/kg biotin-HDAP2 (IP; GenScript, Piscataway, NJ) reconstituted in saline and observed for 2 hours before sacrifice. Eyes were marked to record their orientation, and the animals were given an overdose of ketamine (300 mg/kg)/xylazine (60 mg/kg) (IP) before removing each eye from the orbit with forceps. Whole eyes were dropped into 4% paraformaldehyde that was constituted in either 0.1M Tris or phosphate buffers (pH 7.3) and after ten minutes, the cornea, lens and vitreous body were removed to ensure better penetration of the fixative into the retina. The eyecups were returned to the fixative for one hour. Retinas for wholemounts were dissected from the pigment epithelium by cutting along the or a serrata, gently teasing the retina away from the back of the eye and then freeing the retina by severing the optic nerve. Retinas for cryo-sectioning remained in the eyecup, were cryoprotected in 0.1M Tris or phosphate-buffered sucrose (10%, 20% and 30%) prior to embedding in OCT (Polyfreeze, Polysciences) and sectioned at a thickness of 14 μm at −25° C. using a cryostat (Leica CM3050S).
Immunohistochemistry: Fixed retinas were labeled with cell markers using conventional immunohistochemical protocols to identify cells and structures associated with biotin-HDAP2, and to identify retinal ganglion cells and starburst amacrine cells to assess cell survival following optic nerve crush. Retinas and sections were blocked and permeabilized with 4% normal donkey serum in 0.1M Tris or phosphate buffers with 0.5% Triton-X for 1 hour and then incubated overnight (for sections) or for 3 days (for wholemounts) at 4° C. in selected primary antibodies, and 2% normal donkey serum in the same buffer. […]

[3] = tested on: retinal ganglion cells (RGCs); assay: Optic nerve crush (ONC), retinal ganglion cell survival; format: in vivo, C57BL/6 mice; conditions: for Average density of retinal ganglion cells: 3 mg/kg IP daily 14 days
Text: Quantification of Retinal Ganglion Cell Survival: To test whether the protective effects of biotin-HDAP2 in serum-starved cultured cells extended to neurons in vivo, the survival of RGCs following optic nerve crush (ONC) in the presence and absence of the peptide was studied. To control for density differences of RGCs across the retina, values were standardized by comparing ratios of RBPMS-labeled RGCs with the densities of starburst amacrine cells labeled by choline acetyltransferase (ChAT). Starburst amacrine cells, like other displaced amacrine cells, are unaffected by ONC in the short-term. In control tissue, displaced starburst amacrine cells accounted for about […] of cells in the ganglion cell layer and ratios of RBPMS labeled cells to ChAT neurons was about 4 to 1 in central retina and 3 to 1 at other eccentricities (FIG. 11B).
Optic Nerve Crush Procedure: Adult mice (2-6 mo.) were anesthetized with a cocktail of ketamine (85 mg/kg) and xylazine (20 mg/kg) (IP), the corneas were numbed with a drop of 0.5% proparacaine hydrochloride ophthalmic solution (Falcon Pharmaceuticals), and the animals were positioned under a Nikon dissecting microscope, dorsolaterally either on the left or right sides. The dorsomedial conjunctiva was cut with microdissection spring scissors, the […] muscles were separated, and the eyeball was slightly retracted to expose the optic nerve. Fine, self-closing forceps (Roboz, RS-5027) were used to clamp the optic nerve 1-2 mm behind the globe, for approximately 3 seconds without applying additional tension. The eye was repositioned within the orbit, the conjunctiva reflected over the extraocular eye muscles and the incision covered with ophthalmic polymyxin B-neomycin-bacitracin ointment (3.5 mg/gm, Bausch and Lomb). The optic nerves from the contralateral eye were untouched and used as untreated controls. Following the crush procedure, mice were given a subcutaneous injection of extended-release buprenorphine (0.05 mg/kg, Ethiqua XR) for analgesia and placed on a heating pad until awake and grooming, at which point they were returned to their home cages. Half the animals were given biotin-HDAP2 immediately following the procedure and then daily thereafter (3 mg/kg, IP) for 14 days.
Immunohistochemistry: Fixed retinas were labeled with cell markers using conventional immunohistochemical protocols to identify cells and structures associated with biotin-HDAP2, and to identify retinal ganglion cells and starburst amacrine cells to assess cell survival following optic nerve crush. Retinas and sections were blocked and permeabilized with 4% normal donkey serum in 0.1M Tris or phosphate buffers with 0.5% Triton-X for 1 hour and then incubated overnight (for sections) or for 3 days (for wholemounts) at 4° C. in selected primary antibodies, and 2% normal donkey serum in the same buffer. The tissue was rinsed 3×10 minutes with buffer and then incubated with secondary antibodies for one hour at room temperature (sections) or overnight at 4° C. for wholemounts. Antibodies and markers used were rabbit anti-RBPMS (1:200; Invitrogen, PA5-31231) to label all retinal ganglion cells; goat anti-choline acetyltransferase (ChAT 1:100; EMD Millipore, AB144P) to label starburst amacrine cells; rabbit anti-glutamine synthetase (1:200; Invitrogen, PA1-46165) to label Müller cells; and rabbit anti-cox4 (1:200; Invitrogen, PA5-29992) to identify mitochondria. Secondary antibodies were raised in donkey and conjugated with either Alexa Fluor 488, 594 or 647 (1:500, Life Sciences). To identify the distribution of cell nuclei, and to delineate retinal layers, tissue was labeled with the nuclear stain ToPro3 (1:1000; Invitrogen) for 15 minutes. After staining, sections and retinas were rinsed in buffer and coverslipped in Vectashield mounting media (Vector Labs) to prevent photobleaching. […]

[4] = tested on: MDBK cells; conditions: dilutions up 100 μM

SMILES: N=C(N)NCCC[C@@H](NC(=O)[C@H](Cc1ccccc1)NC(=O)[C@H](Cc1ccccc1)NC(=O)[C@@H](CCCNC(=N)N)NC(=O)CCCC[C@@H]1SC[C@@H]2NC(=O)N[C@@H]21)C(N)=O [biotin-HDAP2, Biotin-dArg-Phe-Phe-dArg-NH2] (Biotin-[dR]FF[dR]-NH2)
- NAO binding to mitochondria [1]: inhibited NAO binding to mitochondria in MDBK cells
- distribution in retina ([2]; 3 mg/kg, IP): labeled all layers of the retina
- distribution in retina ([2]; 40 mg/kg intraperitoneally, 60 minutes): widely distributed throughout the retina
- penetration of the retina-blood barrier ([2]; intravitreal injection and systemic administration): can penetrate the retina-blood barrier
- protection of retinal ganglion cells following optic nerve crush ([3]; 3 mg/kg): protected retinal ganglion cells following optic nerve crush; also recorded: significantly greater survival of retinal ganglion cells
- Average density of retinal ganglion cells ([3]; Central, ONC): 446.1 ± 42.92 cells/mm2
- Average density of retinal ganglion cells ([3]; Midperipheral, ONC): 694.5 ± 52.61 cells/mm2
- expression of RBPMS compared to untreated ([3]; ONC): doubled
- ratio of RGCs to ChAT cells (to 1) ([3]; ONC, treated): 0.70
- more RBPMS labeled cells than untreated animals ([3]; ONC, treated daily): 40%
- expression of RBPMS (mean pixel intensity) ([3]; ONC, treated, n=23): 9.8±0.78 arbitrary fluorescence units
- survival of retinal ganglion cells greater compared to untreated controls ([3]; ONC, intraperitoneal or subcutaneous administration): 50%
- Average density of retinal ganglion cells ([3]; Peripheral, ONC): 565.4 ± 53.61 cells/mm2
- percent increase in RBPMS labeled cells vs untreated ONC ([3]; central retina): 18%
- percent increase in RBPMS labeled cells vs untreated ONC ([3]; midperipheral retina): 38%
- percent increase in RBPMS labeled cells vs untreated ONC ([3]; periphery): 50%
- cellular toxicity [4]: No toxicity in MDBK cell growth was observed
